Results on three compounds are retold here after patent US20040018515A1, “Compositions selective for adenosine diphosphate and methods of using same” (priority 2002, published 2004).

Holding throughout (format): biochemical
The subject of experiment [1] is ppERK. Description: ADP aptamer F01-based kinase SPA. The conditions noted are these: ADP SPA with ADP F01 aptamer; 3H-ATP and MBP; FIG. 34, 35. From the text:
An ADP aptamer will concentrate the tritiated ADP released by kinase on the surface of the flash plate and generate a scintillation proximity signal detectable in a Topcount instrument.

Experiment [2] deals with ppERK. Description: Minimized ADP aptamer F01-based kinase SPA. Set-up: Initial Rate: unit not given here. The conditions noted are these: for inhibition of ppERK activity (decreased signal in the ADP SPA): non-biotinylated minimized ADP aptamer on capture probe, FIG. 44-46. The protocol:
An ADP aptamer will concentrate the tritiated ADP released by kinase on the surface of the flash plate and generate a signal detectable in a Topcount scintillation counter. For the study presented, minimized ADP aptamer (JD37.98A) (FIG. 42, SEQ ID NO: 1 19) was directly 3′-biotinylated and immobilized onto NEN streptavidin flashplates. Specifically, select assay wells were incubated with 5 pmol of JD37.98A directly 3′-biotinylated aptamer in 25 μl of PBS Buffer:BupH (0.05% tRNA, 0.025% Tween 20) with shaking at 650 RPM for 30 min. Unbound biotinylated aptamer probe was rinsed from the plate with three 1×PBS washes and dried as previously described. In following experiments the production of ^3H-ADP from ^3H-ATP was detected from ppERK using streptavidin coated flash plate wells that were incubated with 60 pmol of MK08.112A biotinylated capture probe in 30 μl of PBS Buffer:BupH (0.05% tRNA, 0.025% Tween 20) for 15 min with shaking at 650 RPM. Unbound probe was removed from the plate with three 1×PBS washes and blotted dry as described above. JD37.98A (150 pmol; not biotinylated) minimized ADP aptamer transcribed with capture probe sequence was added to select wells in 30 μl 1×PBS and incubated for 30 min with shaking at shaking at 650 RPM, Unbound probe was removed with three PBS washes and the plates were blotted dry as described above. Kinase reactions were carried out in a 30 μl final sample volume as follows. Stock 15 nM ppERK enzyme solution was prepared in selection buffer and incubated for 10 min at room temperature. Kinase test reactions were initiated by adding 1 μl test sample, e.g., inhibitor, to 14 μl selection buffer containing 1 mM DTT, […], and 2.7 μM ^3H-ATP and then combining this mixture with an equal volume of 15 nM ppERK enzyme solution. Kinase test reaction was immediately transferred to the appropriate test well and the reaction monitored on a TopCount, ^3H SPA scintillation counter over 900 min.

For experiment [3], the system named is ppERK. In words: 96-well high throughput screening (HTS) ppERK kinase assay. The protocol:
A 96-well high throughput screening (HTS) ppERK kinase assay was constructed using the ADP F01 aptamer in an SPA. […] This HTS assay was used to assess the relative inhibitory activity of 100 test compounds at 10 μM concentration (FIG. 37). This HTS assay was performed three times (FIGS. 37A, 37B and 37C).

[4] abbreviates: Concentration 1.8 (unit not given).
The mark [5] stands for this setting: Concentration 3.6 (unit not given).
The mark [6] stands for this setting: Concentration 18 (unit not given).
[7] abbreviates: Concentration 90 (unit not given).
The mark [8] stands for this setting: Concentration 180 (unit not given).
[9] abbreviates: FIG. 37A, test compounds at 10 μM, 40 nM ppERK, 1.35 μM 3H-ATP, 10 μM MBP.
The mark [10] stands for this setting: Concentration 0.05 (unit not given).
Setting [11] is: Concentration 0.1 (unit not given).
Setting [12] is: Concentration 0.5 (unit not given).
Setting [13] is: Concentration 2.5 (unit not given).
[14] abbreviates: Concentration 5 (unit not given).
The mark [15] stands for this setting: Concentration 0.2 (unit not given).
[16] abbreviates: Concentration 1 (unit not given).
Where [17] appears, read: Concentration 10 (unit not given).

`Nc1nccc(-c2c(-c3ccc(F)cc3)ncn2C2CCNCC2)n1` [SB220025]: in the experiment on ppERK [1], the “inhibition of ppERK” value is reported as “concentration-dependent inhibition”. The “20% Reacted Time” value is 92 min in the experiment with ppERK [2] (setting [4]); 101 min in the experiment on ppERK [2] (setting [5]); 117.2 min with ppERK [2] (setting [6]); 128 min with ppERK [2] (setting [7]); 180 min in the experiment on ppERK [2] (setting [8]). The “Initial Rate” value with ppERK [2] (setting [4]) came out at 23.883; with ppERK [2] (setting [5]) it was 20.427; in the experiment with ppERK [2] (setting [6]) it was 4.716; with ppERK [2] (setting [7]), 2.8722; in the experiment with ppERK [2] (setting [8]), 2.3262. Moreover, the “Saturation Time” value with ppERK [2] (setting [4]) is 460 min; with ppERK [2] (setting [5]), 505 min; with ppERK [2] (setting [6]), 586 min; with ppERK [2] (setting [7]), 640 min; in the experiment with ppERK [2] (setting [8]) it was 900 min. Moreover, the “inhibition of ppERK activity (decreased signal in the ADP SPA)” value with ppERK [2] is “concentration-dependent inhibition”.

In the case of `Nc1ncnc2c1c(I)cn2[C@@H]1O[C@H](CO)[C@@H](O)[C@H]1O` [ITU], in the experiment with ppERK [1], the “inhibition of ppERK” value is “concentration-dependent inhibition”. Besides, in the experiment with ppERK [3] (setting [9]), the “reaction rate in the HTS ppERK assay” value is “significantly decreased the reaction rate”. Also, the “20% Reacted Time” value in the experiment on ppERK [2] (setting [10]) is 57.8 min; in the experiment with ppERK [2] (setting [11]), 59.6 min; with ppERK [2] (setting [12]), 59.6 min; in the experiment with ppERK [2] (setting [13]) it was 83 min; in the experiment with ppERK [2] (setting [14]), 113.6 min. Further, the “Initial Rate” value in the experiment with ppERK [2] (setting [10]) is recorded as 46.949; in the experiment on ppERK [2] (setting [11]), 48.324; in the experiment on ppERK [2] (setting [12]), 36.486; in the experiment with ppERK [2] (setting [13]) it was 19.275; with ppERK [2] (setting [14]), 10.772. Moreover, the “Saturation Time” value in the experiment with ppERK [2] (setting [10]) was found to be 289 min; in the experiment on ppERK [2] (setting [11]), 298 min; in the experiment on ppERK [2] (setting [12]), 298 min; in the experiment on ppERK [2] (setting [13]), 415 min; in the experiment with ppERK [2] (setting [14]) it was 568 min. Besides, the “inhibition of ppERK activity (decreased signal in the ADP SPA)” value with ppERK [2] is “concentration-dependent inhibition”.

Turning to `CN[C@@H]1C[C@H]2O[C@@](C)([C@@H]1OC)n1c3ccccc3c3c4c(c5c6ccccc6n2c5c31)C(=O)NC4` [staurosporine], the “reaction rate in the HTS ppERK assay” value with ppERK [3] (setting [9]), in the experiment with ppERK [3] (FIG. 37B (ADP-HH screening)) and in the experiment on ppERK [3] (FIG. 37C (ADP-SPA screening (2nd))) was “significantly decreased the reaction rate” in each case. The “20% Reacted Time” value in the experiment with ppERK [2] (setting [11]) came out at 52.4 min; with ppERK [2] (setting [15]), 70.4 min; in the experiment on ppERK [2] (setting [16]), 52.4 min; in the experiment on ppERK [2] (setting [14]), 110 min; in the experiment on ppERK [2] (setting [17]), 110 min. The “Initial Rate” value turned out to be 45.419 in the experiment on ppERK [2] (setting [11]); 40.907 in the experiment with ppERK [2] (setting [15]); 23.708 in the experiment on ppERK [2] (setting [16]); 10.855 with ppERK [2] (setting [14]); 5.9375 in the experiment on ppERK [2] (setting [17]). For the same compound, the “Saturation Time” value with ppERK [2] (setting [11]) is given as 262 min; in the experiment with ppERK [2] (setting [15]) it was 352 min; with ppERK [2] (setting [16]), 262 min; with ppERK [2] (setting [14]) it was 550 min; in the experiment with ppERK [2] (setting [17]) it was 550 min.
